Results as given in ChEMBL document CHEMBL1139867, “Discovery of the HCV NS3/4A protease inhibitor (1R,5S)-N-[3-amino-1-(cyclobutylmethyl)-2,3-dioxopropyl]-3- [2(S)-[[[(1,1-dimethylethyl)amino]carbonyl]amino]-3,3-dimethyl-1-oxobutyl]- 6,6-dimethyl-3-azabicyclo[3.1.0]hexan-2(S)-carboxamide (Sch 503034) II. Key steps in structure-based optimization” (J Med Chem, 2007).

target: Hepatitis C virus serine protease, NS3/NS4A (Hepatitis C virus, UniProt A3EZI9+D2K2A8); assay: Inhibition of HCV genotype H 1a NS3/4A protease; assay type: protein-complex assay
Sequence (D2K2A8 whole entry): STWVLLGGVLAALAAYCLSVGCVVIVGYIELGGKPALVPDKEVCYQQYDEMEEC
Sequence (A3EZI9 whole entry): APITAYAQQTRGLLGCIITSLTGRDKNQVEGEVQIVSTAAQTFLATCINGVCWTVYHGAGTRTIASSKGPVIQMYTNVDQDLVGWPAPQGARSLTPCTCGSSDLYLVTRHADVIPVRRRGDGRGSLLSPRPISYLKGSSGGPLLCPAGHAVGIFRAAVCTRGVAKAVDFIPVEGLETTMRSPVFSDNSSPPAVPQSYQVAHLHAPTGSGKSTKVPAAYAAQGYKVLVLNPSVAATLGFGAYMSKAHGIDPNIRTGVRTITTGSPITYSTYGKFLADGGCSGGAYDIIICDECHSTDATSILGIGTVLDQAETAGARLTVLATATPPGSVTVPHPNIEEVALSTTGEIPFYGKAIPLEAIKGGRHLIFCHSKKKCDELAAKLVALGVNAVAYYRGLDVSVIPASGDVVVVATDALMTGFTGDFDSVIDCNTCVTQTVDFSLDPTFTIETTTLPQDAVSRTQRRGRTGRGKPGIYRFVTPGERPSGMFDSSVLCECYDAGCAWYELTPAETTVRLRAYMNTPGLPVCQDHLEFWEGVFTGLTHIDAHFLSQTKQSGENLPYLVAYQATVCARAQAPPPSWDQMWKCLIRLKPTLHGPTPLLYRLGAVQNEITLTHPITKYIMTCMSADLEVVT

Compound	Ki
CC(C)(C)NC(=O)NC(C(=O)N1C[C@H]2[C@@H](C1C(=O)N[C@@H](CC1CCC1)C(=O)C(N)=O)C2(F)F)C(C)(C)C (stereo partly drawn)	140 nM
CC(C)(C)OC(=O)NC(C(=O)N1C[C@H]2[C@@H](C1C(=O)N[C@@H](CC1CCCC1)C(=O)C(N)=O)C2(C)C)C1CCCCC1 (stereo partly drawn)	150 nM
CC(C)C[C@H](NC(=O)C(NC(=O)OC(C)(C)C)C(C)(C)C)C(=O)N[C@@H](CC1CCC1)C(=O)C(N)=O (stereo partly drawn)	15000 nM
CC(C)[C@H](NC(=O)NC(C)(C)C)C(=O)N1C[C@H]2[C@@H](C1C(=O)N[C@@H](CC1CC1)C(=O)C(N)=O)C2(C)C (stereo partly drawn)	100 nM
CCCC[C@H](NC(=O)C1[C@@H]2[C@H](CN1C(=O)C(NC(=O)OC(C)(C)C)C(C)(C)C)C2(C)C)C(=O)C(N)=O (stereo partly drawn)	360 nM
CCC[C@H](NC(=O)C1[C@@H]2[C@H](CN1C(=O)C(NC(=O)OC(C)(C)C)C(C)(C)C)C2(C)C)C(=O)C(N)=O (stereo partly drawn)	220 nM
CC(C)(C)NC(=O)NC(C(=O)N1C[C@H]2[C@@H](C1C(=O)N[C@@H](CC1CC1(F)F)C(=O)C(N)=O)C2(C)C)C(C)(C)C (stereo partly drawn)	50 nM
COC(=O)NC(C(=O)N1C[C@H]2[C@@H](C1C(=O)N[C@@H](CC1CC1)C(=O)C(N)=O)C2(C)C)C1CCCCC1 (stereo partly drawn)	800 nM
CC(C)(C)NC(=O)NC(C(=O)N1C[C@@H]2OC(C)(C)C[C@@H]2C1C(=O)N[C@@H](CC1CCC1)C(=O)C(N)=O)C(C)(C)C (stereo partly drawn)	500 nM
CC(C)C[C@H](NC(=O)C1[C@@H]2[C@H](CN1C(=O)C(NC(=O)OC(C)(C)C)C1CCCCC1)C2(C)C)C(=O)C(N)=O (stereo partly drawn)	400 nM
CC(C)(C)OC(=O)NC(C(=O)N1C[C@H]2[C@@H](C1C(=O)N[C@@H](CC1CC1)C(=O)C(N)=O)C2(C)C)C1CCCCC1 (stereo partly drawn)	25 nM
CCOC(=O)NC(C(=O)N1C[C@H]2[C@@H](C1C(=O)N[C@@H](CC1CC1)C(=O)C(N)=O)C2(C)C)C1CCCCC1 (stereo partly drawn)	230 nM
CC(C)(C)NC(=O)NC(C(=O)N1C[C@@H]2OC(C)(C)[C@@H]2C1C(=O)N[C@@H](CC1CC1)C(=O)C(N)=O)C(C)(C)C (stereo partly drawn)	960 nM
CCC[C@H](NC(=O)C1[C@@H]2[C@H](CN1C(=O)C(NC(=O)NC(C)(C)C)C1CCCCC1)C2(C)C)C(=O)C(N)=O (stereo partly drawn)	54 nM
CC(C)(C)C[C@H](NC(=O)C1[C@@H]2[C@H](CN1C(=O)C(NC(=O)OC(C)(C)C)C(C)(C)C)C2(C)C)C(=O)C(N)=O (stereo partly drawn)	> 3300 nM
CC(C)(C)OC(=O)NC(C(=O)N1C[C@H]2[C@@H](C1C(=O)NC(C(=O)C(N)=O)C(C)(C)C)C2(C)C)C(C)(C)C (stereo partly drawn)	> 69000 nM
CCC(NC(=O)C1[C@@H]2[C@H](CN1C(=O)C(NC(=O)OC(C)(C)C)C1CCCCC1)C2(C)C)C(=O)C(N)=O (stereo partly drawn)	740 nM

Compound	Ki
CCC[C@H](NC(=O)C1[C@@H]2[C@H](CN1C(=O)C(NC(=O)OC(C)(C)C)C1CCCCC1)C2(C)C)C(=O)C(N)=O (stereo partly drawn)	100 nM
CC(C)C[C@H](NC(=O)C1[C@@H]2[C@H](CN1C(=O)C(NC(=O)OC(C)(C)C)C(C)(C)C)C2(C)C)C(=O)C(N)=O (stereo partly drawn)	480 nM
CC(C)(C)NC(=O)NC(C(=O)N1C[C@H]2[C@@H](C1C(=O)NC(C(=O)C(N)=O)C1CC1)C2(C)C)C(C)(C)C (stereo partly drawn)	1600 nM
CC(C)(C)NC(=O)NC(C(=O)N1C[C@H]2[C@@H](C1C(=O)NC(C(=O)C(N)=O)C1CCC1)C2(C)C)C(C)(C)C (stereo partly drawn)	100 nM
CC(C)(C)NC(=O)NC(C(=O)N1CCC[C@H]1C(=O)N[C@@H](CC1CCC1)C(=O)C(N)=O)C(C)(C)C (stereo partly drawn)	5000 nM
CC(C)(C)NC(=O)NC(C(=O)N1C[C@H]2[C@@H](C1C(=O)N[C@@H](CC1CCC1)C(=O)C(N)=O)C2(C)C)C(C)(C)C (stereo partly drawn)	14 nM
CC(C)(C)NC(=O)NC(C(=O)N1C[C@H]2[C@@H](C1C(=O)NC(C(=O)C(N)=O)C1CCCC1)C2(C)C)C(C)(C)C (stereo partly drawn)	1800 nM
CC(C)(C)OC(=O)NC(C(=O)N1C[C@H]2[C@@H](C1C(=O)N[C@@H](CC1CCCCC1)C(=O)C(N)=O)C2(C)C)C1CCCCC1 (stereo partly drawn)	> 12000 nM
CC(=O)N[C@H](C(=O)NC(C(=O)N1C[C@H]2[C@@H](C1C(=O)N[C@@H](CC1CC1)C(=O)C(N)=O)C2(C)C)C1CCCCC1)C(C)C (stereo partly drawn)	68 nM
CC(=O)N[C@H](C(=O)NC(C(=O)N1C[C@H]2[C@@H](C1C(=O)N[C@@H](CC1CCC1)C(=O)C(N)=O)C2(C)C)C(C)(C)C)C(C)C (stereo partly drawn)	38 nM
CC(C)(C)NC(=O)NC(C(=O)N1C[C@H]2[C@@H](C1C(=O)N[C@@H](CC1CCC1)C(=O)C(N)=O)C2(Cl)Cl)C(C)(C)C (stereo partly drawn)	19 nM
CC(C)(C)NC(=O)NC(C(=O)N1C[C@H]2[C@@H](C1C(=O)N[C@@H](CC1CC(F)(F)C1)C(=O)C(N)=O)C2(C)C)C(C)(C)C (stereo partly drawn)	115 nM
CC(C)(C)NC(=O)NC(C(=O)N1C[C@H]2[C@@H](C1C(=O)N[C@@H](CC1CC1)C(=O)C(N)=O)C2(C)C)C(C)(C)C (stereo partly drawn)	13 nM
CC(C)OC(=O)NC(C(=O)N1C[C@H]2[C@@H](C1C(=O)N[C@@H](CC1CC1)C(=O)C(N)=O)C2(C)C)C1CCCCC1 (stereo partly drawn)	60 nM
CC(C)(C)NC(=O)NC(C(=O)N1C[C@H]2[C@@H](C1C(=O)N[C@@H](CC1CC1)C(=O)C(N)=O)C2(C)C)C1CCCCC1 (stereo partly drawn)	50 nM
CC(C)(C)OC(=O)NC(C(=O)N1C[C@H]2[C@@H](C1C(=O)N[C@@H](CC1CCC1)C(=O)C(N)=O)C2(C)C)C1CCCCC1 (stereo partly drawn)	25 nM
